The text below walks through data of patent US9557319B2, “Cell-based arrays, methods of making, and methods of using” (University of Florida Research Foundation, Inc., priority 2010, dated 2017).

In data set [1] the test system is HCT116 cells. The data set can be described thus: HCT116 cell number (Hoechst nuclear stain) on drug-loaded microarray. The class given is cell-based, human. The source says:
The following figures (FIGS. 5.1 to 5.4) are micrographs taken from drug-eluting cellular microarrays, manufactured as described herein. The images are taken from individual cellular islands from the same array under various drug-loading conditions over a period of three days. HCT116 cells are nuclear stained with Hoechst for easy visibility. […] The water phase for this experiment was loaded with azide at various concentrations in addition to a control with no drug loaded. Azide is a useful probe reagent, mutagen, and preservative. Azide inhibits cytochrome oxidase by binding irreversibly to the heme cofactor in a process similar to the action of carbon monoxide. As such, it is expected to induce necrosis in cells at physiologically relevant doses.
To establish microarray fidelity, microarrays were manufactured as described above. HCT116 cells were then seeded over microarrays and incubated for 24 or 72 h. Microarrays were fixed in 4% paraformaldehyde and stained with Hoechst 34580 dye.
Camptothecin-loaded microarrays were stained with Annexin V (BD Pharminigen), fixed in 4% paraformaldehyde, and placed in PBS with Hoechst dye 34580 (Invitrogen, USA) for 30 min. Azide-loaded microarrays were fixed with 4% paraformaldehyde and incubated with PBS containing Hoechst 34580 dye. Finally, nutlin-3a-loaded microarrays were fixed with 4% paraformaldehyde, stained with BrdU (BD Bioscience, San Jose, Calif.), and incubated in PBS containing Hoechst 34580 dye. All arrays were mounted with Fluoro-Gel (Electron Microscope Sciences, Hatfield, Pa.) and imaged using an Axiovert 200M microscope (Carl Zeiss, Oberkochen, Germany). Analysis was performed with Axiovision (Carl Zeiss, Oberkochen, Germany) by quantifying, in each drug-eluting island, the area of fluorescence and reported as relative fluorescence intensity (RFI).

Data set [2] is described as follows: Loading efficiency of small molecules in microarrayed EVA films. The class given is physicochemical. The method, then: To embed molecules into the polymer matrix, they were first dissolved in an appropriate solvent, depending on their respective hydrophobicity. A stock solution of azide (99%, Acros), a hydrophilic molecule, was dissolved in dH2O whereas Nutlin-3a (EMD Chemicals, Gibbstown, N.J.) and camptothecin (Sigma), both hydrophobic molecules, were dissolved in DMSO. Dissolved drugs were then added to 5% EVA at a 1:10 ratio of solvent:EVA. Prior to printing, polymer mixtures were vortexed for 30 s and then homogenized for 1 min before being loaded onto the source plate of the robotic mini-arrayer.
To determine the loading efficiency of factors, polymer formulations were made as described above. Films derived from 100 μl EVA loaded with factors were then made on glass coverslips and allowed to dry overnight under vacuum. Films were removed from the glass substrates and weighed. Films were washed briefly with PBS before being placed in 1 ml toluene to dissolve the polymer. Samples were then analyzed using a Nanodrop-ND-1000 spectrophotometer. Standard curves were generated for each factor, and loading efficiency was calculated as the percent of drug embedded in the polymer compared to the theoretical drug concentration.

Consider `[N-]=[N+]=[N-]` [Azide], for which, in data set [1] (37.5 and 75 mM azide, 5-68 h), the “response of HCT116 cell density on azide-loaded ELVAX islands” value is recorded as “dose-dependent response”. Also, the “cell counts of HCT116 on drug-loaded film after attachment” value in data set [1] (1 h after seeding, across loading concentrations, ANOVA p=0.490) is given as “No statistical difference”. In data set [1] (after 24 h), the “HCT116 cell numbers vs drug loading concentration” value is “decreased with increasing loading concentrations”. Moreover, in data set [2], the “Loading efficiency (%)” value is 73 +/− 8%.
